# From patent US20250345433A1, “Drug For Treating Disorders Of An Organ Or Tissue Function And Diseases Accompanied By Such Disorders, And The Method For Obtaining It” (priority 2018, published 2025)
# Experiments:
# [1] = system: male Wistar rats with hemorrhagic stroke; experiment: Hemorrhagic stroke (intracerebral hemorrhage) model in rats; type: in vivo, rat
# Experimental: In the study, male Wistar rats (180-200 g) were used. […] Drug administration was started 1 hour after the pathology simulation and then daily, not earlier than 1 hour before the behavioral tests.
# This method involves the double introduction of autologous blood into the specified structure of the brain of animals. The hemorrhagic stroke simulated in this way in rats in localization corresponds to intracerebral hemorrhages that occur in humans when the lenticularity arteries rupture. The total volume of hematoma in animals corresponds to approximately 40-50 ml in terms of human body weight.
# [2] = system: children with hyperactivity; experiment: ADHD/hyperkinetic disorder in children vs. Piracetam (SNAP-IV, TOVA, fine motor); type: in vivo, human
# Source text: Materials and methods of examination. The study included 57 children aged 6 to 9 years (40 boys and 17 girls) who attended day care centers and elementary schools of secondary schools.
# • 1. The presence of clinical signs of hyperactivity that meet the criteria of ICD-10 (F 90); 2. Age-6-9 years; • 3. Intellectual indicators are not lower than the average on the Wechsler scale (more than 90 points).
# Children with behavioral disorders due to other mental disorders were excluded from the study. For 2 months, the main group of children (n=30) with clinical signs of GH received monotherapy for the claimed medicament in 2 tablet 3 times a day. Children from the control group, similar to the main group by clinical signs, sex and age (n=27), were administered Piracetam in standard age doses for the same period.
# The assessment of the severity of GH according to the criteria of attention disorder, hyperactivity and impulsivity in the examined children was carried out using the SNAP-IV scale (Swanson J., 1992). The psychophysiological test TOVA (The Test of Variables of Attention), allowed to assess the degree of attention disorders (omissions of significant stimuli) and impulsivity (false presses of a button), information processing speed (reaction time) in relation to standard indicators (Greenberg F M, Waldman I D, 1993). The child's fine motor skills were evaluated using tests from the battery of A. R. Luria (1973), selected by testing on these age groups with the development of criteria for scoring points Zh. M. Glozman, et al. (2006).
# The results of the study. At the first stage of the study, using the SNAP-IV scale (Swanson J., 1992) in children of the main and control groups, an initial assessment of the severity of GH was carried out separately for each of the criteria (attention disorder, hyperactivity and impulsivity). Repeated similar assessment was carried out after a two-month course of therapy with the declared Drug in the main group and Piracetam therapy in the control group. The obtained indicators were compared with statistical processing (Table 28).
# The computer-aided testing of TOVA (“Test of Variables of Attention”) was represented by three groups of tests, which allow judging the degree of attention disorder (missing significant stimuli), impulsivity (false pressing a button), information processing speed (reaction time). Baseline indicators of children with GH before treatment were compared with those of children of the main group (treatment with the claimed Drug) and indicators of children of the control group (Piracetam therapy) after a two-month course of treatment.
SMILES,decrease of the area of the hemorrhagic lesion ([1]; 7th day compared with the 3rd day) [%],"total time spent in the dark compartment, passive avoidance reaction, M (QI; Q3) ([1]; 7th day of the study)",difference in motor preference indices ([1]; compared to negative test (Preparation 4)) [%],"children with increase in disinhibition, excitability ([2]; 2 months) [%]",children with sleep disturbance ([2]; 2 months) [%],"number of children with increase in disinhibition, excitability ([2]; 2 months, n = 27)","number of children with sleep disturbance ([2]; 2 months, n = 27)","TOVA false alarm ([2]; First half of the test, after treatment, before 15.3 ± 2.2) [%]","TOVA Omissions of significant incentives ([2]; First half of the test, after treatment, before 19.1 ± 2.4) [%]","TOVA response time ([2]; First half of the test, after treatment, before 795 ± 103) [ms]","TOVA false alarm ([2]; The second half of the test, after treatment, before 29.2 ± 3.3) [%]","TOVA Omissions of significant incentives ([2]; The second half of the test, after treatment, before 29.5 ± 3.3) [%]","TOVA response time ([2]; The second half of the test, after treatment, before 741 ± 126) [ms]","Total mark of fine motor quality ([2]; after treatment, before 2.24 ± 0.21)","SNAP-IV impulsivity ([2]; after two-month treatment, before 2.40 ± 0.28)","SNAP-IV hyperactivity ([2]; after two-month treatment, before 2.64 ± 0.29)","SNAP-IV disorder of attention ([2]; after two-month treatment, before 2.76 ± 0.31)"
"COCCOC(=O)C1=C(C)NC(C)=C(C(=O)OC(C)C)C1c1cccc([N+](=O)[O-])c1 (centres unmarked) [Nimodipine, nimodipine]",16.7,171.00 (163.00; 175.00) s,24.22,,,,,,,,,,,,,,
NC(=O)CN1CCCC1=O [Piracetam],,,,11.1,26,3,7,12.6 ± 3.1,13.5 ± 1.4,745 ± 87,20.5 ± 2.9,16.9 ± 2.9,665 ± 77,1.62 ± 0.16,2.36 ± 0.20,2.46 ± 0.11,2.52 ± 0.13
